How the values were obtained:
[1] = system: SF-295; experiment: NCI growth inhibition and cytotoxicity screen, CNS Cancer panel; format: cell-based; settings: Homo sapiens, Table 2, cell line SF-295 (CNS Cancer)
[2] = system: HL-60(TB); experiment: cells; settings: Homo sapiens
[3] = system: K-562; experiment: NCI growth inhibition and cytotoxicity screen, Leukemia panel; settings: Homo sapiens
[4] = system: RPMI-8226; experiment: as above; settings: Homo sapiens
[5] = system: LOX-IMVI; experiment: NCI growth inhibition and cytotoxicity screen, Melanoma panel; settings: Homo sapiens
[6] = system: MALME-3M; experiment: as above; settings: Homo sapiens
[7] = system: M14; experiment: as above; settings: Homo sapiens
[8] = system: SK-MEL-2; experiment: as above; settings: Homo sapiens
[9] = system: SK-MEL-28; experiment: as above; settings: Homo sapiens
[10] = system: UACC-62; experiment: as above; settings: Homo sapiens
[11] = system: SF-539; experiment: NCI growth inhibition and cytotoxicity screen, CNS Cancer panel; settings: Homo sapiens
[12] = system: SNB-75; experiment: as above; settings: Homo sapiens
[13] = system: U251; experiment: as above; settings: Homo sapiens
[14] = system: A549/ATCC; experiment: NCI growth inhibition and cytotoxicity screen, Lung Cancer panel; settings: Homo sapiens
[15] = system: HOP-62; experiment: as above; settings: Homo sapiens
[16] = system: HOP-92; experiment: as above; settings: Homo sapiens
[17] = system: NCI-H226; experiment: as above; settings: Homo sapiens
[18] = system: NCI-H460; experiment: as above; settings: Homo sapiens
[19] = system: HCT-15; experiment: NCI growth inhibition and cytotoxicity screen, Colon Cancer panel; settings: Homo sapiens
[20] = system: HT29; experiment: as above; settings: Homo sapiens
[21] = system: SW-620; experiment: as above; settings: Homo sapiens
[22] = system: 786-0; experiment: NCI growth inhibition and cytotoxicity screen, Renal Cancer panel; settings: Homo sapiens
[23] = system: A498; experiment: as above; settings: Homo sapiens
[24] = system: CAKI-1; experiment: as above; settings: Homo sapiens
[25] = system: SN12C; experiment: as above; settings: Homo sapiens
[26] = system: TK-10; experiment: as above; settings: Homo sapiens
[27] = system: UO-31; experiment: as above; settings: Homo sapiens
[28] = system: MDA-MB-231/ATCC; experiment: NCI growth inhibition and cytotoxicity screen, Breast Cancer panel; settings: Homo sapiens
[29] = system: OVCAR-4; experiment: NCI growth inhibition and cytotoxicity screen, Ovarian Cancer panel; settings: Homo sapiens
[30] = system: OVCAR-5; experiment: as above; settings: Homo sapiens
[31] = system: OVCAR-8; experiment: as above; settings: Homo sapiens

**Q.** With COc1cc(OC)cc(/C(C#N)=C/c2ccc3ccccc3n2)c1 [PNR-4-84, (Z)-2-(3,5-dimethoxyphenyl)-3-(quinolin-2-yl)acrylonitrile] as the compound, how does the GI50 [1] read?
**A.** 0.341 µM

**Q.** What about the CC50 ([1]; read-out: LC50 (the source's name)) of the same compound?
**A.** > 100 µM

**Q.** What about the GI50 ([2]; HL-60) of the same compound?
**A.** 0.27 µM

**Q.** And the CC50 ([2]; HL-60, read-out: LC50)?
**A.** > 100 µM

**Q.** What about the GI50 ([3]; K562) of the same compound?
**A.** 0.353 µM

**Q.** And the CC50 ([3]; K562, read-out: LC50)?
**A.** > 100 µM

**Q.** And the GI50 ([4]; RPMI-8226)?
**A.** 0.433 µM

**Q.** What about the CC50 ([4]; RPMI-8226, read-out: LC50) of the same compound?
**A.** > 100 µM

**Q.** What about the GI50 [5] of the same compound?
**A.** 0.61 µM

**Q.** And the CC50 ([5]; read-out: LC50)?
**A.** > 100 µM

**Q.** What about the GI50 [6] of the same compound?
**A.** 0.348 µM

**Q.** What about the CC50 ([6]; read-out: LC50) of the same compound?
**A.** > 100 µM

**Q.** And the GI50 ([7]; M14)?
**A.** 0.36 µM

**Q.** And the CC50 ([7]; M14, read-out: LC50)?
**A.** > 100 µM

**Q.** And the GI50 ([8]; SK-MEL-2)?
**A.** 0.522 µM

**Q.** And the CC50 ([8]; SK-MEL-2, read-out: LC50)?
**A.** > 100 µM

**Q.** What about the GI50 ([9]; SK-MEL-28) of the same compound?
**A.** 0.896 µM

**Q.** And the CC50 ([9]; SK-MEL-28, read-out: LC50)?
**A.** > 100 µM

**Q.** What about the GI50 ([10]; UACC-62) of the same compound?
**A.** 0.449 µM

**Q.** And the CC50 ([10]; UACC-62, read-out: LC50)?
**A.** > 100 µM

**Q.** And the GI50 ([11]; SF-539)?
**A.** 0.286 µM

**Q.** What about the CC50 ([11]; SF-539, read-out: LC50) of the same compound?
**A.** 8.03 µM

**Q.** And the GI50 ([12]; SNB-75)?
**A.** 0.311 µM

**Q.** And the CC50 ([12]; SNB-75, read-out: LC50)?
**A.** > 100 µM

**Q.** And the GI50 ([13]; U-251)?
**A.** 0.425 µM

**Q.** And the CC50 ([13]; U-251, read-out: LC50)?
**A.** > 100 µM

**Q.** And the GI50 ([14]; A549)?
**A.** 0.649 µM

**Q.** And the CC50 ([14]; A549, read-out: LC50)?
**A.** > 100 µM

**Q.** And the GI50 ([15]; HOP-62)?
**A.** 0.959 µM

**Q.** What about the CC50 ([15]; HOP-62, read-out: LC50) of the same compound?
**A.** > 100 µM

**Q.** What about the GI50 ([16]; HOP-92) of the same compound?
**A.** 0.542 µM

**Q.** And the CC50 ([16]; HOP-92, read-out: LC50)?
**A.** > 100 µM

**Q.** And the GI50 ([17]; NCI-H226)?
**A.** 10.8 µM

**Q.** And the CC50 ([17]; NCI-H226, read-out: LC50)?
**A.** > 100 µM

**Q.** What about the GI50 ([18]; NCI-H460) of the same compound?
**A.** 0.339 µM

**Q.** And the CC50 ([18]; NCI-H460, read-out: LC50)?
**A.** > 100 µM

**Q.** What about the GI50 ([19]; HCT-15) of the same compound?
**A.** 0.409 µM

**Q.** What about the CC50 ([19]; HCT-15, read-out: LC50) of the same compound?
**A.** > 100 µM

**Q.** What about the GI50 ([20]; HT-29) of the same compound?
**A.** 0.367 µM

**Q.** What about the CC50 ([20]; HT-29, read-out: LC50) of the same compound?
**A.** > 100 µM

**Q.** What about the GI50 ([21]; SW-620) of the same compound?
**A.** 0.357 µM

**Q.** And the CC50 ([21]; SW-620, read-out: LC50)?
**A.** > 100 µM

**Q.** And the GI50 ([22]; 786-0)?
**A.** 0.501 µM

**Q.** What about the CC50 ([22]; 786-0, read-out: LC50) of the same compound?
**A.** > 100 µM

**Q.** What about the GI50 ([23]; A498) of the same compound?
**A.** 0.275 µM

**Q.** What about the CC50 ([23]; A498, read-out: LC50) of the same compound?
**A.** > 100 µM

**Q.** What about the GI50 ([24]; CAKI-1) of the same compound?
**A.** 0.318 µM

**Q.** What about the CC50 ([24]; CAKI-1, read-out: LC50) of the same compound?
**A.** > 100 µM

**Q.** And the GI50 [25]?
**A.** 0.661 µM

**Q.** What about the CC50 ([25]; read-out: LC50) of the same compound?
**A.** > 100 µM

**Q.** And the GI50 ([26]; TK-10)?
**A.** 3.28 µM

**Q.** And the CC50 ([26]; TK-10, read-out: LC50)?
**A.** > 100 µM

**Q.** What about the GI50 ([27]; UO-31) of the same compound?
**A.** 0.573 µM

**Q.** And the CC50 ([27]; UO-31, read-out: LC50)?
**A.** > 100 µM

**Q.** What about the GI50 ([28]; MDA-MB-231) of the same compound?
**A.** 1.02 µM

**Q.** What about the CC50 ([28]; MDA-MB-231, read-out: LC50) of the same compound?
**A.** > 100 µM

**Q.** And the GI50 ([29]; OVCAR-4)?
**A.** 0.788 µM

**Q.** And the CC50 ([29]; OVCAR-4, read-out: LC50)?
**A.** > 100 µM

**Q.** What about the GI50 ([30]; OVCAR-5) of the same compound?
**A.** 0.716 µM

**Q.** What about the CC50 ([30]; OVCAR-5, read-out: LC50) of the same compound?
**A.** 42.8 µM

**Q.** What about the GI50 ([31]; OVCAR-8) of the same compound?
**A.** 0.659 µM

**Q.** What about the CC50 ([31]; OVCAR-8, read-out: LC50) of the same compound?
**A.** > 100 µM
